The numbers were not newly measured in US8568704B2, “Dermatological/pharmaceutical compositions comprising benzoyl peroxide, at least one naphthoic acid compound and at least one polyurethane polymer” (Galderma Research & Development, priority 2006, dated 2013), which cites them from elsewhere.

The conditions of data set [1]: 40° C.
The conditions of data set [2]: in presence of benzoyl peroxide-based formulation.

Like-named read-outs stand apart in the source and are kept apart here.

With `O=C(OOC(=O)c1ccccc1)c1ccccc1` [benzoyl peroxide], the “benzoyl peroxide degradation time” value is reported as 29 days in data set [1] (in ethanol) and 53 days in data set [1] (in propylene glycol).

Take `CC1=C(/C=C/C(C)=C/C=C/C(C)=C/C(=O)O)C(C)(C)CCC1` [tretinoin]: the results for the tretinoin degraded in data set [2] (within 2 hours) and in data set [2] (within 24 hours) were 50% and 95%, respectively.

On to `COc1ccc(-c2ccc3cc(C(=O)O)ccc3c2)cc1C12CC3CC(CC(C3)C1)C2` [adapalene, 6-[3-(1-adamantyl)-4-methoxyphenyl]-2-naphthoic acid], for which the degradation of adapalene entry in data set [2] (for 24 hours) is “no degradation”.
